Where two headings read alike, the source gives them in different places.

Data set [1] has as its system Balb/c mice. The experiment in a line: subacute toxicity assay. Format: in vivo. As to conditions: Day 0-14, n = 6. The procedure:
Reduction of Toxicity by Combination of Ex19 and MZR Subacute Toxicity Assay
Balb/c mice were treated with MZR at 100 mpk PO or Ex19 at equal molecule dose to MZR from day 0-14.

The subject of data set [2] is DBA-1 mice with CIA. The experiment in a line: chicken collagen type II induced rheumatoid arthritis (CIA) in DBA-1 mice. The format is in vivo. As to conditions: monotherapy at given doses, 30 day-treatment. An excerpt:
Results of example 67 showing disease score in DBA-1 mice with CIA after a 30 day-treatment with the Mizoribine prodrug of example 19 alone and in combination with MMF or Mizoribine.
Example 67: Synergy of the Prodrug of Example 19 with MMF or Mizoribine in Treatment of DBA-1 Mice with Chicken Collagen Type II Induced Rheumatoid Arthritis (CIA)

The test system of data set [3] is IL-2 production. The experiment in a line: suppression of IL-2 production in anti-CD3 antibody stimulated mice in vivo. Details: species or system Balb/c mice. The settings on record: Mus musculus; for inhibition at 65 mg/kg: 65 mpk PO; for inhibition at 40 mg/kg: 40 mpk PO; for inhibition at 55 mg/kg: 55 mpk PO; for inhibition at 50 mg/kg: 50 mpk PO; for inhibition at 25 mg/kg: 25 mpk PO. The procedure: Mizoribine prodrug-induced suppression of IL-2 production in anti-CD3 antibody stimulated mice in vivo.
Inbreed Balb/c mice, male, 8-10 week old, were pre-treated with Mycophenolate mofetil (MMF), Mizoribine and Mizoribine prodrugs at the different time intervals before anti-mouse CD3 antibody injection IP (1 μg per mouse). The doses of the prodrugs of examples 19, 40 and 48 were equal to Mizoribine on the bases of molecular weight. Four hours after anti-CD3 antibody stimulation, a volume of 100 μl peripheral blood was taken by eye puncture and serum IL-2 was quantified by FACS-beads technology. Briefly, an aliquot of 10 μl of serum was incubated with anti-mouse IL-2 antibody coated microbeads at 4° C. for 30 min. After washing twice with cold PBS, the beads were incubated with biotin-conjugated anti-mouse IL-2 antibody at 4° C. for 30 min. After washing twice with cold PBS, The beads were incubated with PE-conjugated avidin at 4° C. for 30 min. After washing twice with cold PBS, the samples were analyzed by flow cytometry. Results were expressed as mean of 2 mice in each group.

In data set [4] the test system is heart grafts from Balb/c donors in C57BL/6 recipient mice. The experiment in a line: heart allograft survival in mice (heterotopic heart transplantation). The format is in vivo. The protocol: Synergy of Mizoribine Prodrugs with FK506 to Prolong Heart Allograft Survival in Mice
Heterotopic hear transplantation was performed by placing heart grafts from Balb/c donors to the neck of C57BL/6 recipient mice using micro-suture technology, in which the aorta and pulmonary artery of the graft were connected to carotid artery and jugular vein, respectively. The function of grafts was monitored by daily inspection and palpation. Rejection was determined by cessation of graft beating and confirmed by histology.

For data set [5], the target named is IMPDH (E. coli) (Escherichia coli, UniProt P0ADG7). The settings on record: lower end of the range; cited from earlier work.
Data set [6] deals with hlMPDH1 (Homo sapiens, UniProt P20839). The settings on record: upper end of the range; cited from earlier work.
Setting [7] is: given 1 hour before anti-CD3, mean of 2 mice, read-out: % inhibition of IL-2, 1 hour post administration.
[8] abbreviates: given 4 hours before anti-CD3, mean of 2 mice, read-out: % inhibition of IL-2, 4 hour post administration.
Setting [9] is: given 8 hours before anti-CD3, mean of 2 mice, read-out: % inhibition of IL-2, 8 hour post administration.
Where [10] appears, read: 1 to 8 hours post administration, read-out: inhibition of IL-2, range up to 8 hours post administration.

Chain of IMPDH (E. coli) (P0ADG7 whole entry): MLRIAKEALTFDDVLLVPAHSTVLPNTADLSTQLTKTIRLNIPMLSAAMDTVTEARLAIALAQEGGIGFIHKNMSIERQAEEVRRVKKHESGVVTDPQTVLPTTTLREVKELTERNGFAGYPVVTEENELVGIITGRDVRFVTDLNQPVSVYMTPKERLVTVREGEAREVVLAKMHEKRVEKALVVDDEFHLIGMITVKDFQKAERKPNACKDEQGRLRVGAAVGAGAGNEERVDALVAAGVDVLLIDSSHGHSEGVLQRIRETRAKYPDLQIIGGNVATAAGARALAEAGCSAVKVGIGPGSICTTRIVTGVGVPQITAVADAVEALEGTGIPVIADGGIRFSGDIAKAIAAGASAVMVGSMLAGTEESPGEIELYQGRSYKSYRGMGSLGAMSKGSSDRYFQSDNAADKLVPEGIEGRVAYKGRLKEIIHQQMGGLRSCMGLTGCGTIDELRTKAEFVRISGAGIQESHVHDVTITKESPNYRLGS
Chain of hlMPDH1 (P20839 whole entry): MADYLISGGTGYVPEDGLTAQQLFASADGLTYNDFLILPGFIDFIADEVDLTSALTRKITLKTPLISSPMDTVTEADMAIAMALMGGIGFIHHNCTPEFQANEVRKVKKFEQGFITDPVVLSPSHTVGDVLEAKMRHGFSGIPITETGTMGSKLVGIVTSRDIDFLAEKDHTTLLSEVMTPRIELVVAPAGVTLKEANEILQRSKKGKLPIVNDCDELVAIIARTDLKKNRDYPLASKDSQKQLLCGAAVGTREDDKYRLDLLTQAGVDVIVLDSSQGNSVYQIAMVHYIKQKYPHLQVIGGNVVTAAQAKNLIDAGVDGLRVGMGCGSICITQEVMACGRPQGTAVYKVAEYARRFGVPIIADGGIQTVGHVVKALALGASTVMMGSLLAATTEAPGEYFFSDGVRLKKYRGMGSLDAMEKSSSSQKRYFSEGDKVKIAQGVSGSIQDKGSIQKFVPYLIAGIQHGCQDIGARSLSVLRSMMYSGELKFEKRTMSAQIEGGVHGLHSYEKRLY

`CC(C)CCOC(=O)C[C@H](NP(=O)(OC[C@H]1O[C@@H](n2cnc(C(N)=O)c2O)[C@H](O)C1O)Oc1ccccc1)C(=O)OCCC(C)C` (stereo partly drawn) [Ex 19, Mizoribine-5′-[phenyl-bis(isoamyl-L-aspartyl)]phosphate]: the “n° sick animals” value in data set [1] (Ex19 260 mg/kg PO (equal molecule dose to MZR)) is 3. For the same compound, the “% sickness” value in data set [1] (Ex19 260 mg/kg PO) came to 50%. In data set [2], the “suppression of disease score” value was “didn't show notable suppression of disease score”. Also, the inhibition at 65 mg/kg in data set [3] (setting [7]) was 14.7%; in data set [3] (setting [8]) it was 18.3%; in data set [3] (setting [9]), 17.5%; in data set [3] (setting [10]) it was 14 to 18%.
As to `CC(C)(C)C(=O)NC(=O)c1ncn([C@@H]2O[C@H](COC(=O)C(C)(C)C)C(O)[C@H]2O)c1O` (stereo partly drawn) [Ex 40, Mizoribine-5′-N-dipivalate], the “MST (median survival time) ± SD” value in data set [4] (83 mpk PO, d 0 to d 14 post transplantation) was 11 ± 0.6 days; in data set [4] (83 mpk PO, d 0 to d 14 post transplantation, listed as Example 40), 11 ± 0.6 days; in data set [4] (83 mpk PO, d 0 to d 14 post transplantation, listed as example 40) it was 11 ± 0.6 days. Further, the inhibition at 40 mg/kg in data set [3] (setting [7]) turned out to be 19.4%; in data set [3] (setting [8]), 64.4%; in data set [3] (setting [9]) it was 61.3%.
For the compound `NC(=O)c1ncn(C2OC(COC(=O)[C@@H](N)CC(=O)OCc3ccccc3)C(O)C2O)c1O` (stereo partly drawn) [Ex 48, Mizoribine-5′-(4-benzyl ester-L-aspartyl) ester], the “MST (median survival time) ± SD” value in data set [4] (112 mpk PO, d 0 to d 14 post transplantation) was 11 ± 1.0 days; in data set [4] (112 mpk PO, d 0 to d 14 post transplantation, listed as example 48), 11 ± 1.0 days. The inhibition at 55 mg/kg in data set [3] (setting [7]) is 77%; in data set [3] (setting [8]), 32.7%; in data set [3] (setting [9]), 27.7%; in data set [3] (setting [10]) it was 27.7 to 77%.
As for `C=CC[C@@H]1/C=C(\C)C[C@H](C)C[C@H](OC)[C@H]2O[C@@](O)(C(=O)C(=O)N3CCCC[C@H]3C(=O)O[C@H](/C(C)=C/[C@@H]3CC[C@@H](O)[C@H](OC)C3)[C@H](C)[C@@H](O)CC1=O)[C@H](C)C[C@@H]2OC` [FK506, tacrolimus], the “MST (median survival time) ± SD” value in data set [4] (FK506 4 mpk IM, d 0 to d 14 post transplantation, 4 mg/kg) is 8 ± 1.3 days.
`COc1c(C)c2c(c(O)c1C/C=C(\C)CCC(=O)OCCN1CCOCC1)C(=O)OC2` [MMF, Mycophenolate mofetil, reference compound]: in data set [4] (MMF 100 mpk PO, d 0 to d 14), the “MST (median survival time) ± SD” value turned out to be 11 ± 1.2 days. In addition, the “suppression of disease score” value in data set [2] is reported as “didn't show notable suppression of disease score”. Moreover, the inhibition at 50 mg/kg in data set [3] (given 1 hour before anti-CD3, serum IL-2 4 h after stimulation, mean of 2 mice, read-out: % inhibition of IL-2, 1 hour post administration) worked out at 81.7%; in data set [3] (setting [8]), 52.3%; in data set [3] (setting [9]), 3.4%.
Take `NC(=O)c1ncn([C@@H]2O[C@H](CO)[C@@H](O)[C@H]2O)c1O` [Mizoribine]: the “MST (median survival time) ± SD” value in data set [4] (MZR 50 mpk PO, d 0 to d 14) worked out at 8 ± 1.2 days; in data set [4] (MZR 50 mpk PO, d 0 to d 14, listed as MZR), 8 ± 1.2 days. Moreover, in data set [2], the “suppression of disease score” value is recorded as “didn't show notable suppression of disease score”. Further, the inhibition at 25 mg/kg was 55.6% in data set [3] (setting [7]), -8.6% in data set [3] (setting [8]) and -7.3% in data set [3] (setting [9]).
A word on the Ki: it is a dissociation constant, usually derived from enzyme kinetics or from competition with a known ligand. As to `NC(=O)c1ncn([C@@H]2O[C@H](COP(=O)(O)O)[C@@H](O)[C@H]2O)c1O` [mizoribine-5′-monophosphate], the Ki in data set [5] is 0.5 nM; in data set [6], 8 nM.

(Values after US20190388441A1, “NOVEL PRODRUGS OF MIZORIBINE” (KATHOLIEKE UNIVERSITEIT LEUVEN, priority 2017, published 2019).)
